Read-outs that look alike come from different tables or passages of the source.
How the values were obtained:
Assay type in all cases: in vivo
Nilaparvata lugens = assay: Pest control test of Nilaparvata lugens, soil irrigation treatment; details: for mortality of larvae: soil irrigation, 0.05 mg/seedling, three days after release; for % Mortality, Test Example 12 Nilaparvata lugens: soil irrigation treatment
Protocol: Test Example 12 Pest Control Test of Nilaparvata lugens
A rice seedling in pot culture was subjected to soil irrigation treatment with a drug solution of the compound of the present invention at a predetermined concentration, which had been prepared so as to be a 10% acetone water. Three days after the treatment, ten second instar larvae of Nilaparvata lugens were each released thereto. Thereafter, the larvae were left to stand in a thermostatic chamber (16 hours of light period-8 hours of dark period) at 25° C. […] The test was performed in duplicate.
(§1) Mortality of larvae(%)={number of dead larvae/(number of survived larvae+number of dead larvae)}×100

[1] = tested on: Frankliniella occidentalis; assay: Pest control test of Frankliniella occidentalis, kidney bean leaf disk foliar spray; details: for % Mortality, Test Example7 Frankliniella occidentalis: foliar treatment
Excerpt: Test Example 7 Pest Control Test of Frankliniella occidentalis
A leaf disk having a diameter of 2.8 cm was cut out from a kidney bean in pot culture, and a drug solution of the compound of the present invention at a predetermined concentration, which had been prepared so as to be a 50% acetone water (0.05% Tween20 available), was sprayed to the leaf disk. After an air drying process, first instar larvae were released thereto. Thereafter, the larvae were left to stand in a thermostatic chamber (16 hours of light period-8 hours of dark period) at 25° C. […] Test in duplicate.
as §1

Plutella xylostella = Plutella xylostella control test, cabbage leaf disk foliar spray; details: for % Mortality, Test Example1 Plutella xylostella: foliar treatment
Protocol: Test Example 1 Plutella xylostella Control Test
A leaf disk having a diameter of 5.0 cm was cut out from a cabbage in pot culture, and a drug solution of the compound of the present invention at a predetermined concentration, which had been prepared so as to be a 50% acetone water (0.05% Tween20 available), was sprayed to the leaf disk. After an air drying process, second instar larvae were released thereto. Thereafter, the larvae were left to stand in a thermostatic chamber (16 hours of light period-8 hours of dark period) at 25° C. […] Test in duplicate.
mortality larvae(%)={number of dead larvae/(number of survived larvae+number of dead larvae)}×100

[2] = tested on: imidacloprid susceptible populations of Nilaparvata lugens; assay: Soil irrigation test, imidacloprid susceptible populations of Nilaparvata lugens; details: Rate 0.05 mg/pot
Protocol: (§2) A rice seedling in pot culture was subjected to soil irrigation treatment with a drug solution of the compound of the present invention at a predetermined concentration, which had been prepared so as to be a 10% acetone water. […] Thereafter, the larvae were left to stand in a thermostatic chamber (16 hours of light period-8 hours of dark period) at 25° C. […] The test was performed in duplicate.
as §1
Further, for comparison, the test against some population of Nilaparvata lugens which is highly susceptible to imidacloprid was performed by the same method as described above, and the results thereof are shown in Table 43.
(§3) Further, for the origin of test pests, bugs collected outdoors within the Kumamoto prefecture in 2007 as the drug resistant Nilaparvata lugens, and bugs collected within the Kagoshima prefecture and then successively reared indoors for a long time as the imidacloprid susceptible populations of Nilaparvata lugens were used.

Spodoptera litura = assay: Pest control test against Spodoptera litura, cabbage leaf disk foliar spray; details: for mortality at 500 ppm: Spodoptera litura, 72 h, read-out: mortality of larvae; for % Mortality, Test Example2 Spodoptera litura: foliar treatment, 100 ppm
Protocol: Test Example 2 Pest Control Test Against Spodoptera litura
A leaf disk having a diameter of 5.0 cm was cut out from a cabbage in pot culture, and a drug solution of the compound of the present invention at a predetermined concentration, which had been prepared so as to be a 50% acetone water (0.05% Tween20 available), was sprayed to the leaf disk. After an air drying process, third instar larvae were released thereto. Thereafter, the larvae were left to stand in a thermostatic chamber (16 hours of light period-8 hours of dark period) at 25° C. […] Test in duplicate.
as §1

Laodelphax striatella = assay: Pest control test of Laodelphax striatella, soil irrigation treatment of rice seedling; details: for mortality of larvae: soil irrigation, 0.05 mg/seedling, three days after release; for % Mortality, Test Example 10 Laodelphax striatella: soil irrigation treatment
Excerpt: <Soil Irrigation Treatment Test>
Test Example 10 Pest Control Test of Laodelphax striatellua
A rice seedling in pot culture was subjected to soil irrigation treatment with a drug solution of the compound of the present invention at a predetermined concentration, which had been prepared so as to be a 10% acetone water. Three days after the treatment, ten second instar larvae of Laodelphax striatella were each released thereto. Thereafter, the larvae were left to stand in a thermostatic chamber (16 hours of light period-8 hours of dark period) at 25° C. […] The test was performed in duplicate.
as §1

Aphis gossypii = assay: Pest control test of Aphis gossypii, cucumber leaf disk foliar spray; details: foliar treatment
Protocol: Test Example 3 Pest Control Test of Aphis gossypii
A leaf disk having a diameter of 2.0 cm was cut out from a cucumber in pot culture, and a drug solution of the compound of the present invention at a predetermined concentration, which had been prepared so as to be a 50% acetone water (0.05% Tween20 available), was sprayed to the leaf disk. After an air drying process, first instar larvae were released thereto. Thereafter, the larvae were left to stand in a thermostatic chamber (16 hours of light period-8 hours of dark period) at 25° C. […] Test in duplicate.
as §1

Musca domestica = assay: Pest control test of Musca domestica adults, sucrose pledget; details: 50 ppm in 40% sucrose liquid; four days after release
Protocol: Test Example 21 Pest Control Test of Musca domestica
A drug solution of the compound of the present invention, which had been adjusted to be 50 ppm with a 40% sucrose liquid, was adsorbed on a pledget, and the pledget was put into a vial. Two adults reared indoors were released thereto. Thereafter, the adults were left to stand indoors at room temperature of 25° C. […] When two adults were all agonized in death, it was judged to be effective.

[3] = tested on: Nilaparvata lugens exhibiting drug resistance to imidacloprid; details: soil irrigation; for Insecticidal effects against Nilaparvata lugens (mortality of larvae %), Drug resistant populations three days after the treatment: Rate 0.05 mg/pot; for insecticidal effects against drug resistant Nilaparvata lugens: imidacloprid-resistant; for mortality of larvae against drug resistant populations compared with susceptible populations of Nilaparvata lugens: imidacloprid-resistant vs susceptible
Protocol: Test Example 18 Pest Control Test of Drug-Resistant Nilaparvata lugens
as §2, §1, §3

[4] = tested on: Trigonotylus caelestialium; assay: Pest control test of Trigonotylus caelestialium, wheat seedling dipping
Excerpt: Test Example 8 Pest Control Test of Trigonotylus caelestialium
Wheat seedling leaves and stems four days after the dissemination of seedlings were dipped for 30 seconds in a drug solution of the compound of the present invention at a predetermined concentration, which had been prepared so as to be a 50% acetone water (0.05% Tween20 available). After an air drying process, the wheat seedling leaves and stems were placed into a glass tube, and two second instar larvae of Trigonotylus caelestialium were released to the same glass tube. After the larvae were released, the tube was lidded to leave the larvae to stand in a thermostatic chamber at 25° C. In order to supply water to the wheat during the test, water was given to the wheat from the bottom of the glass tube.
as §1

CCNC(=S)N=c1ccccn1Cc1ccc(Cl)nc1 [Comparative Example 8, 1-[1-((6-chloropyridine-3-yl)methyl)pyridine-2(1H)-ylidene]-3-ethylthiourea, reference compound]
mortality of larvae (Nilaparvata lugens): 15%
mortality at 500 ppm ([1]; Frankliniella occidentalis, foliar, 72 h, read-out: mortality of larvae): 15%
mortality at 500 ppm (Plutella xylostella; Plutella xylostella, foliar, 72 h, read-out: mortality of larvae): 20%
Insecticidal effects against Nilaparvata lugens (mortality of larvae %), Susceptible populations three days after the treatment [2]: 15%
mortality at 500 ppm (Spodoptera litura; foliar): 10%
mortality of larvae (Laodelphax striatella): 0%

CCOC(=O)NC(=S)/N=c1\ccccn1Cc1ccc(Cl)nc1 [Comparative Example 9, 1-[1-((6-chloropyridine-3-yl)methyl)pyridine-2(1H)-ylidene]-3-ethoxycarbonylthiourea, reference compound]
mortality of larvae (Nilaparvata lugens): 0%
Insecticidal effects against Nilaparvata lugens (mortality of larvae %), Susceptible populations three days after the treatment [2]: 0%
mortality at 500 ppm (Spodoptera litura; foliar treatment at 500 ppm, third instar larvae, three days after release): 11%
mortality of larvae (Laodelphax striatella): 0%

FC(F)C(=S)N=c1ccccn1Cc1ccc(Cl)nc1 [Compound 1-21]
% Mortality, Test Example 12 Nilaparvata lugens (Nilaparvata lugens; 0.01 mg/pot): 10%
% Mortality, Test Example 12 Nilaparvata lugens (Nilaparvata lugens; 0.05 mg/pot): 85%
% Mortality, Test Example7 Frankliniella occidentalis ([1]; 20 ppm): 80%
% Mortality, Test Example7 Frankliniella occidentalis ([1]; 100 ppm): 90%
% Mortality, Test Example1 Plutella xylostella (Plutella xylostella; 20 ppm): 10%
% Mortality, Test Example1 Plutella xylostella (Plutella xylostella; 100 ppm): 80%
% Mortality, Test Example3 Aphis gossypii (Aphis gossypii; 0.313 ppm): 55%
% Mortality, Test Example3 Aphis gossypii (Aphis gossypii; 1.25 ppm): 100%
% Mortality, Test Example3 Aphis gossypii (Aphis gossypii; 5 ppm): 100%
% Mortality, Test Example3 Aphis gossypii (Aphis gossypii; 20 ppm): 100%
% Mortality, Test Example3 Aphis gossypii (Aphis gossypii; 100 ppm): 100%
activity against adults (effective when two adults were all agonized in death) (Musca domestica): all the adults are agonized in death
Insecticidal effects against Nilaparvata lugens (mortality of larvae %), Susceptible populations three days after the treatment [2]: 67%
% Mortality, Test Example2 Spodoptera litura (Spodoptera litura): 55%
% Mortality, Test Example 10 Laodelphax striatella (Laodelphax striatella; 0.01 mg/pot): 20%
% Mortality, Test Example 10 Laodelphax striatella (Laodelphax striatella; 0.05 mg/pot): 100%
Insecticidal effects against Nilaparvata lugens (mortality of larvae %), Drug resistant populations three days after the treatment [3]: 50%
insecticidal effects against drug resistant Nilaparvata lugens [3]: high insecticidal effects
mortality of larvae against drug resistant populations compared with susceptible populations of Nilaparvata lugens [3]: equivalent mortality of larvae
% Mortality, Test Example8 Trigonotylus caelestialium ([4]; 2 ppm): 67%
% Mortality, Test Example8 Trigonotylus caelestialium ([4]; 10 ppm): 100%
% Mortality, Test Example8 Trigonotylus caelestialium ([4]; 50 ppm): 100%

FC(F)(Cl)C(=S)N=c1ccccn1Cc1ccc(Cl)nc1 [Compound 1-22]
activity against adults (effective when two adults were all agonized in death) (Musca domestica): all the adults are agonized in death
Insecticidal effects against Nilaparvata lugens (mortality of larvae %), Susceptible populations three days after the treatment [2]: 75%
Insecticidal effects against Nilaparvata lugens (mortality of larvae %), Drug resistant populations three days after the treatment [3]: 60%
insecticidal effects against drug resistant Nilaparvata lugens [3]: high insecticidal effects
mortality of larvae against drug resistant populations compared with susceptible populations of Nilaparvata lugens [3]: equivalent mortality of larvae

FC(F)(F)C(F)(F)C(=S)N=c1ccccn1Cc1ccc(Cl)nc1 [Compound 1-23]
activity against adults (effective when two adults were all agonized in death) (Musca domestica): all the adults are agonized in death
Insecticidal effects against Nilaparvata lugens (mortality of larvae %), Susceptible populations three days after the treatment [2]: 85%
Insecticidal effects against Nilaparvata lugens (mortality of larvae %), Drug resistant populations three days after the treatment [3]: 70%
insecticidal effects against drug resistant Nilaparvata lugens [3]: high insecticidal effects
mortality of larvae against drug resistant populations compared with susceptible populations of Nilaparvata lugens [3]: equivalent mortality of larvae

Fc1ccc(Cn2ccccc2=NC(=S)C(F)(F)F)cn1 [Compound 3-20]
% Mortality, Test Example 12 Nilaparvata lugens (Nilaparvata lugens; 0.01 mg/pot): 100%
% Mortality, Test Example 12 Nilaparvata lugens (Nilaparvata lugens; 0.05 mg/pot): 100%
% Mortality, Test Example7 Frankliniella occidentalis ([1]; 100 ppm): 45%
% Mortality, Test Example1 Plutella xylostella (Plutella xylostella; 20 ppm): 0%
% Mortality, Test Example1 Plutella xylostella (Plutella xylostella; 100 ppm): 55%
% Mortality, Test Example3 Aphis gossypii (Aphis gossypii; 0.313 ppm): 15%
% Mortality, Test Example3 Aphis gossypii (Aphis gossypii; 1.25 ppm): 100%
% Mortality, Test Example3 Aphis gossypii (Aphis gossypii; 5 ppm): 100%
% Mortality, Test Example3 Aphis gossypii (Aphis gossypii; 20 ppm): 100%
% Mortality, Test Example3 Aphis gossypii (Aphis gossypii; 100 ppm): 100%
activity against adults (effective when two adults were all agonized in death) (Musca domestica): all the adults are agonized in death
Insecticidal effects against Nilaparvata lugens (mortality of larvae %), Susceptible populations three days after the treatment [2]: 100%
% Mortality, Test Example2 Spodoptera litura (Spodoptera litura): 30%
% Mortality, Test Example 10 Laodelphax striatella (Laodelphax striatella; 0.05 mg/pot): 90%
Insecticidal effects against Nilaparvata lugens (mortality of larvae %), Drug resistant populations three days after the treatment [3]: 100%
insecticidal effects against drug resistant Nilaparvata lugens [3]: high insecticidal effects
mortality of larvae against drug resistant populations compared with susceptible populations of Nilaparvata lugens [3]: equivalent mortality of larvae
% Mortality, Test Example8 Trigonotylus caelestialium ([4]; 2 ppm): 50%
% Mortality, Test Example8 Trigonotylus caelestialium ([4]; 10 ppm): 100%
% Mortality, Test Example8 Trigonotylus caelestialium ([4]; 50 ppm): 100%

Reference: patent US20150005347A1, “NITROGEN-CONTAINING HETEROCYCLIC DERIVATIVE HAVING 2-IMINO GROUP AND PEST CONTROL AGENT INCLUDING THE SAME” (MEIJI SEIKA PHARMA CO., LTD., priority 2012, published 2015)
